{"source": "patent US20250351832A1", "about": "“PHYTOCHEMICALS AS BIOPESTICIDES AND BIOSTIMULANTS” (KAY BEE BIO ORGANICS PVT. LTD., priority 2024, published 2025)", "key": {"[1]": {"system": "Spodoptera litura", "conditions": "Spodoptera litura on castor leaves, dose 1 ml/gm/lit."}, "[2]": {"system": "Mealy Bug", "conditions": "mealy bug on cotton plants, green house, dose 1 ml/gm/lit. spray"}, "[3]": {"system": "chili seedlings", "test": "Response of chili plants, greenhouse growth (Ex. 31)", "type": "in vivo", "conditions": "chili seedlings, dose 1 ml/gm/lit"}, "[4]": {"system": "Helicoverpa armigera", "conditions": "Helicoverpa armigera on okra fruits, dose 1 ml/gm/lit., 72 Hrs."}, "[5]": {"system": "Mite", "conditions": "mite on okra plants, green house, dose 1 ml/gm/lit. spray"}, "[6]": {"system": "Spodoptera litura", "conditions": "Spodoptera litura 3rd instar on cabbage plants, dose 1 ml/gm/lit. spray"}, "[7]": {"system": "Alternaria alternata", "test": "Alternaria leaf spot/blight on inoculated tomato plants (Ex. 28)", "type": "in vivo", "conditions": "tomato plants, Alternaria alternata; after 7 days; dose 1 ml/gm/lit"}, "[8]": {"system": "Thrips", "conditions": "thrips on cotton plants, greenhouse, dose 1 ml/gm/lit. spray"}, "[9]": {"system": "Helicoverpa armigera", "conditions": "Helicoverpa armigera 3rd instar on chickpea plants, dose 1 ml/gm/lit. spray"}, "[10]": {"system": "Alternaria alternata", "test": "In vitro poisoned food technique against fungus (Ex. 20)", "type": "cell-based", "conditions": "poisoned food technique, PDA medium, dose 1 ml/gm/lit., after seven days"}, "[11]": {"system": "Aphid", "conditions": "Aphids on cotton plants, green house, dose 1 ml/gm/lit."}, "[12]": {"system": "Mealy Bug", "conditions": "Mealy Bug on cotton leaves, dose 1 ml/gm/lit., 48 Hrs."}, "[13]": {"system": "Thrips", "conditions": "Thrips on cotton leaves, dose 1 ml/gm/lit."}, "[14]": {"system": "Mite", "conditions": "Dose 1 ml/gm/lit."}, "[15]": {"conditions": "cited from earlier work"}, "[16]": {"system": "tomato seedlings", "test": "Response of tomato plants, greenhouse growth (Ex. 30)", "type": "in vivo", "conditions": "tomato seedlings, dose 1 ml/gm/lit"}, "[17]": {"system": "Aphid", "conditions": "Dose 1 ml/gm/lit."}, "[18]": {"conditions": "72 hrs, corrected for water control"}, "[19]": {"conditions": "48 hrs, corrected for water control"}, "[20]": {"conditions": "10 insects/treatment, 4 replications"}, "[21]": {"conditions": "Table 13, descriptive, no test described"}}, "note": "Where two headings read alike, the source gives them in different places."}
{"substance": "Berberine", "values": [{"measurement": "Total No. of dead insect at 72 Hrs.", "setting": "[1]; 10 insects/treatment, 72 hrs after application", "value": 7.00}, {"measurement": "% Mortality at 72 Hrs.", "setting": "[1]; 72 hrs after application", "value": 70.00, "unit": "%"}, {"measurement": "% Corrected Mortality at 72 Hrs.", "setting": "[1]; [18]", "value": 68.42, "unit": "%"}, {"measurement": "% Mortality at 48 Hrs.", "setting": "[2]; 48 hrs after application", "value": 70.00, "unit": "%"}, {"measurement": "Total No. of dead insect at 48 Hrs.", "setting": "[2]; 48 hrs after application", "value": 70.00}, {"measurement": "% Corrected Mortality at 48 Hrs.", "setting": "[2]; [19]", "value": 66.67, "unit": "%"}, {"measurement": "CCI 5th Day", "setting": "[3]; 5th day after application", "value": 13.04}, {"measurement": "Plant Height (cm) 5th Day", "setting": "[3]; 5th day after application", "value": 6.15, "unit": "cm"}, {"measurement": "CCI % Increase over pre on 10th Day", "setting": "[3]; 10th day", "value": 36.98, "unit": "%"}, {"measurement": "Plant Height % Increase over pre on 10th Day", "setting": "[3]; 10th day", "value": 50.11, "unit": "%"}, {"measurement": "Root Lenght (cm) 10th Day", "setting": "[3]; 10th day", "value": 3.11, "unit": "cm"}, {"measurement": "Stem Girth % Increase over pre on 10th Day", "setting": "[3]; 10th day", "value": 40.15, "unit": "%"}, {"measurement": "CCI 10th Day", "setting": "[3]; 10th day after application", "value": 14.04}, {"measurement": "Plant Height (cm) 10th Day", "setting": "[3]; 10th day after application", "value": 6.89, "unit": "cm"}, {"measurement": "Root Lenght % Increase over control", "setting": "[3]; 10th day, vs water control", "value": 13.75, "unit": "%"}, {"measurement": "CCI Pre", "setting": "[3]; pre-application baseline", "value": 10.25}, {"measurement": "Plant Height (cm) Pre", "setting": "[3]; pre-application baseline", "value": 4.59, "unit": "cm"}, {"measurement": "Total No. of dead insect at 72 Hrs.", "setting": "[4]; [20]", "value": 6.50}, {"measurement": "% Mortality at 72 Hrs.", "setting": "[4]", "value": 65.00, "unit": "%"}, {"measurement": "% Corrected Mortality at 72 Hrs.", "setting": "[4]; corrected for water control", "value": 65.00, "unit": "%"}, {"measurement": "% Mortality at 48 Hrs.", "setting": "[5]; 48 hrs after application", "value": 45.00, "unit": "%"}, {"measurement": "Total No. of dead insect at 48 Hrs.", "setting": "[5]; 48 hrs after application", "value": 45.00}, {"measurement": "% Corrected Mortality at 48 Hrs.", "setting": "[5]; [19]", "value": 42.11, "unit": "%"}, {"measurement": "% Mortality at 72 Hrs.", "setting": "[6]; 72 hrs after application", "value": 67.50, "unit": "%"}, {"measurement": "% Corrected Mortality at 72 Hrs.", "setting": "[6]; [18]", "value": 65.79, "unit": "%"}, {"measurement": "% Disease reduction over Control", "setting": "[7]", "value": 52.89, "unit": "%"}, {"measurement": "% Mortality at 48 Hrs.", "setting": "[8]; 48 hrs after application", "value": 67.50, "unit": "%"}, {"measurement": "Total No. of dead insect at 48 Hrs.", "setting": "[8]; 48 hrs after application", "value": 67.50}, {"measurement": "% Corrected Mortality at 48 Hrs.", "setting": "[8]; [19]", "value": 63.89, "unit": "%"}, {"measurement": "% Mortality at 72 Hrs.", "setting": "[9]; 72 hrs after application", "value": 62.50, "unit": "%"}, {"measurement": "% Corrected Mortality at 72 Hrs.", "setting": "[9]; [18]", "value": 62.50, "unit": "%"}, {"measurement": "Mean colony Diameter (mm)", "setting": "[10]", "value": 45.50, "unit": "mm"}, {"measurement": "% Inhibition of growth", "setting": "[10]; vs untreated control", "value": 48.30, "unit": "%"}, {"measurement": "Total No. of dead insect at 48 Hrs.", "setting": "[11]; 10 insects/plant, 10 plants/treatment, 48 hrs", "value": 55.00}, {"measurement": "% Mortality at 48 Hrs.", "setting": "[11]; 48 hrs after application", "value": 55.00, "unit": "%"}, {"measurement": "% Corrected Mortality at 48 Hrs.", "setting": "[11]; [19]", "value": 47.06, "unit": "%"}, {"measurement": "Total No. of dead insect at 48 Hrs.", "setting": "[12]; [20]", "value": 7.50}, {"measurement": "% Mortality at 48 Hrs.", "setting": "[12]", "value": 75.00, "unit": "%"}, {"measurement": "% Corrected Mortality at 48 Hrs.", "setting": "[12]; corrected for water control", "value": 73.68, "unit": "%"}, {"measurement": "Total No. of dead insect at 48 Hrs.", "setting": "[13]; 10 insects/treatment, 48 hrs after application", "value": 6.50}, {"measurement": "% Mortality at 48 Hrs.", "setting": "[13]; 48 hrs after application", "value": 65.00, "unit": "%"}, {"measurement": "% Corrected Mortality at 48 Hrs.", "setting": "[13]; [19]", "value": 60.00, "unit": "%"}, {"measurement": "Total No. of dead insect at 48 Hrs.", "setting": "[14]; 10 insects/treatment, 4 replications, okra leaves", "value": 4.75}, {"measurement": "% Corrected Mortality at 48 Hrs.", "setting": "[14]; 48 hrs", "value": 43.24, "unit": "%"}, {"measurement": "% Mortality at 48 Hrs.", "setting": "[14]; 48 hrs", "value": 47.50, "unit": "%"}, {"measurement": "Antifungal Activity - Mode of action", "setting": "[15]; [21]", "value": "Inhibit multipath mechanisms,"}, {"measurement": "Antioxidant Activity - Mode of action", "setting": "[15]; [21]", "value": "Reducing Oxidative Stress"}, {"measurement": "Bactericidal Activity - Mode of action", "setting": "[15]; [21]", "value": "Resulting in DNA damage,"}, {"measurement": "Insecticidal Activities - Mode of action", "setting": "[15]; [21]", "value": "Disturbed moulting, larval-"}, {"measurement": "Nematicidal Activity - Mode of action", "setting": "[15]; [21]", "value": "Effective against root knot"}, {"measurement": "Phytotonic Effect", "setting": "[15]; Table 13, effect on plants, descriptive", "value": "Boost"}, {"measurement": "Plant Height 5th Day", "setting": "[16]; 5th day after application", "value": 6.78, "unit": "cm"}, {"measurement": "Stem Girth 5th Day", "setting": "[16]; 5th day after application", "value": 2.01, "unit": "mm"}, {"measurement": "Plant Height 10th Day", "setting": "[16]; 10th day after application", "value": 7.34, "unit": "cm"}, {"measurement": "Stem Girth 10th Day", "setting": "[16]; 10th day after application", "value": 2.25, "unit": "mm"}, {"measurement": "Plant Height % Increase over pre on 10th Day", "setting": "[16]; 10th day", "value": 29.91, "unit": "%"}, {"measurement": "Stem Girth % Increase over pre on 10th Day", "setting": "[16]; 10th day", "value": 54.11, "unit": "%"}, {"measurement": "Plant Height Pre", "setting": "[16]; before application", "value": 5.65, "unit": "cm"}, {"measurement": "Stem Girth Pre", "setting": "[16]; before application", "value": 1.46, "unit": "mm"}, {"measurement": "CCI 5th Day", "setting": "[16]; 5th day after application", "value": 14.53}, {"measurement": "CCI % Increase over pre on 10th Day", "setting": "[16]; 10th day", "value": 24.86, "unit": "%"}, {"measurement": "Root Length (cm) 10th Day", "setting": "[16]; 10th day", "value": 4.13, "unit": "cm"}, {"measurement": "CCI 10th Day", "setting": "[16]; 10th day after application", "value": 15.67}, {"measurement": "Root Length % Increase over control", "setting": "[16]; 10th day, vs water control", "value": 24.12, "unit": "%"}, {"measurement": "CCI Pre", "setting": "[16]; pre-application baseline", "value": 12.55}, {"measurement": "Total No. of dead insect at 48 Hrs.", "setting": "[17]; 10 insects/treatment, 4 replications, cotton leaves", "value": 5.25}, {"measurement": "% Corrected Mortality at 48 Hrs.", "setting": "[17]; 48 hrs", "value": 45.71, "unit": "%"}, {"measurement": "% Mortality at 48 Hrs.", "setting": "[17]; 48 hrs", "value": 52.50, "unit": "%"}]}
